Data taken from ChEMBL document CHEMBL4609974, “Triazole derivatives and their antiplasmodial and antimalarial activities” (Eur J Med Chem, 2019).
Converted amounts (≈) assume the structure as drawn.

Columns and labels:
Plasmodium falciparum [1] = test: Antimalarial activity against chloroquine-sensitive Plasmodium falciparum D6; assay type: functional, organism-based
Plasmodium falciparum [2] = test: Antimalarial activity against chloroquine-resistant Plasmodium falciparum W2; assay type: functional, organism-based
Plasmodium falciparum [3] = test: Antimalarial activity against chloroquine-sensitive Plasmodium falciparum 3D7; assay type: functional, organism-based
Plasmodium falciparum [4] = test: Antimalarial activity against chloroquine-resistant Plasmodium falciparum K1; assay type: functional, organism-based
Plasmodium falciparum [5] = test: Antimalarial activity against […] Plasmodium falciparum W2; assay type: functional, organism-based
Plasmodium falciparum [6] = test: Antimalarial activity against chloroquine-resistant Plasmodium falciparum […]; assay type: functional, organism-based
PC-3 = test: Cytotoxicity against human PC3 cells assessed as reduction in cell viability; assay type: functional, cell-based
[7] = Selectivity index, ratio of CC50 for human MRC5 cells assessed as reduction in cell viability to MIC for […]; assay type: toxicity; settings: read-out: Selectivity Index
Enterococcus faecalis = test: Antimicrobial activity against Enterococcus faecalis; assay type: functional
Staphylococcus aureus = test: Antimicrobial activity against Staphylococcus aureus; assay type: functional
[8] = Selectivity index, ratio of CC50 for human MRC5 cells assessed as reduction in cell viability to MIC for chloroquine-resistant Plasmodium falciparum K1; assay type: toxicity; settings: read-out: Selectivity Index
MRC5 = test: Cytotoxicity against human MRC5 cells assessed as reduction in cell viability; assay type: functional

Structure (SMILES) | IC50 (Plasmodium falciparum [1]) [µM] | IC50 (Plasmodium falciparum [2]) [µM] | IC50 (Plasmodium falciparum [4]) | further results
Cc1ccc(OCc2cn(CCNc3ccnc4cc(Cl)ccc34)nn2)cc1 | 0.9 to 11.5 | 0.9 to 11.5 | – | –
CC(C)c1ccc(OCc2cn(CCNc3ccnc4cc(Cl)ccc34)nn2)cc1 | 0.9 to 11.5 | 0.9 to 11.5 | – | –
C[C@@H]1CC[C@H]2[C@@H](C)C(=O)O[C@@H]3O[C@@]4(C)CC[C@@H]1[C@]32OO4 [ARTEMISININ] | 0.03 | 0.25 | – | –
CC(=O)c1ccc(OCc2cn(CCCNc3ccnc4cc(Cl)ccc34)nn2)cc1 | 0.59 | 1.14 | – | –
Cc1ccc(OCc2cn(CCNc3ccnc4cc(Cl)ccc34)nn2)cc1C | 0.9 to 11.5 | 0.9 to 11.5 | – | –
COc1ccc2cc3[n+](cc2c1OCc1cn(-c2ccc(S(=O)(=O)N4CCCCC4)cc2)nn1)CCc1cc2c(cc1-3)OCO2 | – | – | – | IC50 (Plasmodium falciparum [3]): 0.142 to 28 µM
Fc1ccc(-c2nc3ccc(NCc4cn(-c5cccc(C(F)(F)F)c5)nn4)cc3nc2-c2ccc(F)cc2)cc1 | – | – | 7.1 to 153 µM | –
O=C(CSc1nnc(Cc2ccccc2)n1-c1ccccc1)N1CCc2ccccc21 | – | 4.59 | – | IC50 (Plasmodium falciparum [5]): 4.59 µM
Fc1ccc(-c2nc3ccc(NCc4cn(-c5ccccc5)nn4)cc3nc2-c2ccc(F)cc2)cc1 | – | – | 7.1 to 153 µM | –
FC(F)(F)c1cccc(-n2cc(CNc3ccc4nc(-c5ccccc5)c(-c5ccccc5)nc4c3)nn2)c1 | – | – | 7.1 to 153 µM | –
COc1cccc(-n2cc(CN(Cc3cn(-c4cccc(OC)c4)nn3)c3ccc4nc(-c5ccccc5)c(-c5ccccc5)nc4c3)nn2)c1 | – | – | 9.76 to 3540 µM | –
O=C(CSc1nnc(Cc2ccccc2)n1-c1ccc(Cl)cc1)N1CCc2ccccc21 | – | 48.8 | – | IC50 (Plasmodium falciparum [5]): 48.8 µM
OCc1cn(CCCNc2ccnc3cc(Cl)ccc23)nn1 | 0.59 to 4.71 | 0.59 to 4.71 | – | –
Cc1nnc(Cn2cc(C(=O)NNC(=S)Nc3ccccc3)c(=O)c3cc(F)c(Cl)cc32)n1N | – | – | – | IC50 (Plasmodium falciparum [6]): 3.91 µM
COc1ccc2cc3[n+](cc2c1OCc1cn(-c2ccc(S(=O)(=O)Nc4ccc([N+](=O)[O-])cc4)cc2)nn1)CCc1cc2c(cc1-3)OCO2 | – | – | – | IC50 (Plasmodium falciparum [3]): 0.142 to 28 µM
O=C(c1cn(CCNc2ccnc3cc(Cl)ccc23)nn1)C1CCCCO1 (stereo not given) | 0.9 to 11.5 | 0.9 to 11.5 | – | –
Cc1ccc(-n2cc(CNc3ccc4nc(-c5ccccc5)c(-c5ccccc5)nc4c3)nn2)cc1 | – | – | 7.1 to 153 µM | –
Fc1ccc(-c2nc3ccc(N(Cc4cn(-c5ccccc5)nn4)Cc4cn(-c5ccccc5)nn4)cc3nc2-c2ccc(F)cc2)cc1 | – | – | 9.76 to 3540 µM | –
COc1ccc2cc3[n+](cc2c1OCc1cn(-c2ccc(S(=O)(=O)Nc4ccc(Br)cc4)cc2)nn1)CCc1cc2c(cc1-3)OCO2 | – | – | – | IC50 (Plasmodium falciparum [3]): 0.142 to 28 µM
Fc1ccc(-c2nc3ccc(N(Cc4cn(-c5ccc(F)cc5)nn4)Cc4cn(-c5ccc(F)cc5)nn4)cc3nc2-c2ccc(F)cc2)cc1 | – | – | 9.76 to 3540 µM | –

Structure (SMILES) | IC50 (Plasmodium falciparum [1]) [µM] | IC50 (Plasmodium falciparum [2]) [µM] | IC50 (Plasmodium falciparum [4]) | further results
Cc1cccc(OCc2cn(CCNc3ccnc4cc(Cl)ccc34)nn2)c1 | 0.9 to 11.5 | 0.9 to 11.5 | – | –
COc1cccc(-n2cc(CN(Cc3cn(-c4cccc(OC)c4)nn3)c3ccc4nc(-c5ccc(F)cc5)c(-c5ccc(F)cc5)nc4c3)nn2)c1 | – | – | 9.76 to 3540 µM | –
O=[N+]([O-])c1cccc(-n2cc(CN(Cc3cn(-c4cccc([N+](=O)[O-])c4)nn3)c3ccc4nc(-c5ccc(F)cc5)c(-c5ccc(F)cc5)nc4c3)nn2)c1 | – | – | 9.76 to 3540 µM | –
O=[N+]([O-])c1cccc(-n2cc(CN(Cc3cn(-c4cccc([N+](=O)[O-])c4)nn3)c3ccc4nc(-c5ccccc5)c(-c5ccccc5)nc4c3)nn2)c1 | – | – | 9.76 to 3540 µM | –
COc1ccc2cc3[n+](cc2c1OCc1cn(-c2ccc(S(=O)(=O)Nc4ccc(Cl)cc4)cc2)nn1)CCc1cc2c(cc1-3)OCO2 | – | – | – | IC50 (PC-3): 0.142 µM; IC50 (Plasmodium falciparum [3]): 0.142 to 28 µM
CC[C@H]1OC(=O)C[C@@H](O)[C@H](C)C(O[C@@H]2O[C@H](C)[C@@H](O)[C@H](N(C)C)[C@H]2O)C(CC=O)C[C@@H](C)C(=N\OCCCc2cn(-c3cnc4ccccc4c3)nn2)/C=C/C(C)=C/[C@@H]1CO[C@@H]1O[C@H](C)[C@@H](O)[C@@H](OC)[C@H]1OC (stereo not given in full) | – | – | 0.73 µg/mL | selectivity ratio [7]: 59; MIC (Enterococcus faecalis): 0.5 to 1 µg/mL (≈ 0.489 to 0.977 µM); MIC (Staphylococcus aureus): 0.5 to 1 µg/mL (≈ 0.489 to 0.977 µM); selectivity ratio [8]: 59; CC50 (MRC5): 43 µg/mL (≈ 42 µM)
COc1ccc2cc3[n+](cc2c1OCc1cn(-c2ccc(S(=O)(=O)N4CCN(C)CC4)cc2)nn1)CCc1cc2c(cc1-3)OCO2 | – | – | – | IC50 (Plasmodium falciparum [3]): 0.142 to 28 µM
COc1ccc2cc3[n+](cc2c1OCc1cn(-c2ccc(S(=O)(=O)Nc4ccc(F)cc4)cc2)nn1)CCc1cc2c(cc1-3)OCO2 | – | – | – | IC50 (Plasmodium falciparum [3]): 0.142 to 28 µM
OC1(c2cn(CCNc3ccnc4cc(Cl)ccc34)nn2)CCCCC1 | 0.9 to 11.5 | 0.9 to 11.5 | – | –
c1ccc(-c2nc3ccc(NCc4cn(-c5ccccc5)nn4)cc3nc2-c2ccccc2)cc1 | – | – | 7.1 to 153 µM | –
Cc1ccc(-n2cc(CN(Cc3cn(-c4ccc(C)cc4)nn3)c3ccc4nc(-c5ccccc5)c(-c5ccccc5)nc4c3)nn2)cc1 | – | – | 9.76 to 3540 µM | –
COc1ccc(NS(=O)(=O)c2ccc(-n3cc(COc4c(OC)ccc5cc6[n+](cc45)CCc4cc5c(cc4-6)OCO5)nn3)cc2)cc1 | – | – | – | IC50 (Plasmodium falciparum [3]): 0.142 to 28 µM
Cc1nnc(Cn2cc(C(=O)NNC(=O)Nc3ccccc3)c(=O)c3cc(F)c(Cl)cc32)n1N | – | – | – | IC50 (Plasmodium falciparum [6]): 3.89 µM
O=[N+]([O-])c1cccc(-n2cc(CNc3ccc4nc(-c5ccccc5)c(-c5ccccc5)nc4c3)nn2)c1 | – | – | 7.1 to 153 µM | –
CC(=O)c1ccc(OCc2cn(CCNc3ccnc4cc(Cl)ccc34)nn2)cc1 | 0.9 to 11.5 | 0.9 to 11.5 | – | –
OC1(c2cn(CCCNc3ccnc4cc(Cl)ccc34)nn2)CCCCC1 | 0.59 to 4.71 | 0.59 to 4.71 | – | –
OCc1cn(CCNc2ccnc3cc(Cl)ccc23)nn1 | 0.9 to 11.5 | 0.9 to 11.5 | – | –
Fc1ccc(-c2nc3ccc(N(Cc4cn(-c5cccc(C(F)(F)F)c5)nn4)Cc4cn(-c5cccc(C(F)(F)F)c5)nn4)cc3nc2-c2ccc(F)cc2)cc1 | – | – | 9.76 to 3540 µM | –
Clc1ccc2c(NCCCn3cc(COc4ccc5ccccc5c4)nn3)ccnc2c1 | 0.59 to 4.71 | 0.59 to 4.71 | – | –
COc1ccc2cc3[n+](cc2c1OCc1cn(-c2ccc(S(N)(=O)=O)cc2)nn1)CCc1cc2c(cc1-3)OCO2 | – | – | – | IC50 (Plasmodium falciparum [3]): 0.142 to 28 µM

Structure (SMILES) | IC50 (Plasmodium falciparum [1]) [µM] | IC50 (Plasmodium falciparum [2]) [µM] | IC50 (Plasmodium falciparum [4]) | further results
Clc1ccc(OCc2cn(CCNc3ccnc4cc(Cl)ccc34)nn2)cc1 | 0.9 to 11.5 | 0.9 to 11.5 | – | –
FC(F)(F)c1cccc(-n2cc(CN(Cc3cn(-c4cccc(C(F)(F)F)c4)nn3)c3ccc4nc(-c5ccccc5)c(-c5ccccc5)nc4c3)nn2)c1 | – | – | 9.76 to 3540 µM | –
Clc1ccc2c(NCCn3cc(COc4ccc5ccccc5c4)nn3)ccnc2c1 | 0.9 to 11.5 | 0.9 to 11.5 | – | –
CC[C@H]1OC(=O)C[C@@H](O)[C@H](C)C(O[C@@H]2O[C@H](C)[C@@H](O)[C@H](N(C)C)[C@H]2O)C(CC=O)C[C@@H](C)C(=N\OCc2cn(-c3cnc4ccccc4c3)nn2)/C=C/C(C)=C/[C@@H]1CO[C@@H]1O[C@H](C)[C@@H](O)[C@@H](OC)[C@H]1OC (stereo not given in full) | – | – | 2 µg/mL | MIC (Enterococcus faecalis): 0.5 to 1 µg/mL (≈ 0.502 to 1 µM); MIC (Staphylococcus aureus): 0.5 to 1 µg/mL (≈ 0.502 to 1 µM)
Cc1ccc(-n2cc(CN(Cc3cn(-c4ccc(C)cc4)nn3)c3ccc4nc(-c5ccc(F)cc5)c(-c5ccc(F)cc5)nc4c3)nn2)cc1 | – | – | 9.76 to 3540 µM | –
Fc1ccc(-c2nc3ccc(NCc4cn(-c5ccc(F)cc5)nn4)cc3nc2-c2ccc(F)cc2)cc1 | – | – | 7.1 to 153 µM | –
c1ccc(-c2nc3ccc(N(Cc4cn(-c5ccccc5)nn4)Cc4cn(-c5ccccc5)nn4)cc3nc2-c2ccccc2)cc1 | – | – | 9.76 to 3540 µM | –
Clc1ccc2c(NCCn3cc(COc4ccc(Br)cc4)nn3)ccnc2c1 | 0.9 to 11.5 | 0.9 to 11.5 | – | –
COc1ccc(OCc2cn(CCNc3ccnc4cc(Cl)ccc34)nn2)cc1 | 0.9 to 11.5 | 0.9 to 11.5 | – | –
Clc1ccc2c(NCCn3cc(COc4c(Cl)cccc4Cl)nn3)ccnc2c1 | 0.9 to 11.5 | 0.9 to 11.5 | – | –
COc1cccc(-n2cc(CNc3ccc4nc(-c5ccccc5)c(-c5ccccc5)nc4c3)nn2)c1 | – | – | 7.1 to 153 µM | –
Fc1ccc(-n2cc(CNc3ccc4nc(-c5ccccc5)c(-c5ccccc5)nc4c3)nn2)cc1 | – | – | 7.1 to 153 µM | –
Cc1cc(OCc2cn(CCNc3ccnc4cc(Cl)ccc34)nn2)ccc1Cl | 0.9 to 11.5 | 0.9 to 11.5 | – | –
Cc1ccc(-n2cc(CNc3ccc4nc(-c5ccc(F)cc5)c(-c5ccc(F)cc5)nc4c3)nn2)cc1 | – | – | 7.1 to 153 µM | –
Fc1ccc(-n2cc(CN(Cc3cn(-c4ccc(F)cc4)nn3)c3ccc4nc(-c5ccccc5)c(-c5ccccc5)nc4c3)nn2)cc1 | – | – | 9.76 to 3540 µM | –
O=[N+]([O-])c1ccc(OCc2cn(CCNc3ccnc4cc(Cl)ccc34)nn2)cc1 | 0.9 to 11.5 | 0.9 to 11.5 | – | –
COc1cccc(-n2cc(CNc3ccc4nc(-c5ccc(F)cc5)c(-c5ccc(F)cc5)nc4c3)nn2)c1 | – | – | 7.1 to 153 µM | –
COc1ccc2cc3[n+](cc2c1OCc1cn(-c2ccc(S(=O)(=O)N4CCOCC4)cc2)nn1)CCc1cc2c(cc1-3)OCO2 | – | – | – | IC50 (Plasmodium falciparum [3]): 0.142 to 28 µM
O=[N+]([O-])c1cccc(-n2cc(CNc3ccc4nc(-c5ccc(F)cc5)c(-c5ccc(F)cc5)nc4c3)nn2)c1 | – | – | 7.1 to 153 µM | –
COc1ccc2cc3[n+](cc2c1OCc1cn(-c2ccc(S(=O)(=O)Nc4ccccc4)cc2)nn1)CCc1cc2c(cc1-3)OCO2 | – | – | – | IC50 (Plasmodium falciparum [3]): 0.142 to 28 µM
